Reference: US20250188091A1, “PYRIDONE COMPOUND HAVING INTEGRASE INHIBITORY ACTIVITY AND PHARMACEUTICAL USE THEREOF” (priority 2021, published 2025)

Test system: common clinical integrase mutant strains (G140S/Q148R, Q148R/N155H, E138K, Q148H, R263K and Y143R/Q148H)
Assay: Pseudovirus assay, common clinical integrase mutant strains (overall comparison)
Format: cell-based, HIV-1
Conditions: R263K and Y143R/Q148H pseudoviruses
Experimental: The inhibitory activity against pseudoviruses containing common clinical mutation sites of HIV-1 integrase (G140S/Q148R, Q148R/N155H, E138K, Q148H, R263K and Y143R/Q148H) was determined.
Preparation of pseudovirus: Using the lentiviral plasmid pNL4-3-Luc-RE (HedgehogBio) as the backbone, an integrase point mutation plasmid was constructed. HEK293T cells (ATCC) were seeded in a 6-well plate at 5×10^5 cells per well. After 24 hours, when the cell density reached 60% to 80%, transfection was performed. pNL4-3-Luc-R-E- or pNL4-3-Luc-R-E--IN-mutant plasmid and lentivirus packaging plasmid pMD2.G (Beijing Zoman Bio) were added to the transfection reagent in a certain proportion. Cell transfection was performed according to the instructions of transfection reagent PEI25K (Maokang Biotechnology). After 48 hours, the supernatant was collected, centrifuged at 3000 rpm for 5 minutes, filtered with a 0.45 μm microporous membrane, aliquoted, and stored at −80° C. for later use. In HEK293T cells, the pseudovirus titer was determined based on luciferase activity.
Determination of antiviral activity of compounds: In a 96-well V-bottom plate, the compound to be tested was diluted with DMSO semi-logarithmically, and a compound solution 4 times the final concentration was prepared for later use. […]

With `O=C(NCc1ccc(F)cc1F)c1cn2c(c(O)c1=O)C(=O)N1[C@@H](CF)CO[C@@H]1C2` [Compound 2] the “activity compared with cabotegravir” value was “better than that of cabotegravir with significant differences”.
